The source of these data is patent US20160158246A1, “METHOD OF TREATING DIFFUSE LARGE B-CELL LYMPHOMA (DLBCL) USING A BET-BROMODOMAIN INHIBITOR” (ONCOETHIX GMBH, priority 2013, published 2016).

Molecules are shown by their SMILES.

The test system of test [1] is pSTAT3 and p50 (NFKB 1) in ABC cell lines. The experiment in a line: immunoblotting and immunohistochemistry. It is filed as cell-based.
The test system of test [2] is IL10 and IL4 production. Briefly: IL10 and IL4 production. It is filed as cell-based. As to conditions: after 24 hours treatment.
Test [3] deals with NFKB target genes (IRF4, TNFAIP3 and BIRC3). The experiment in a line: PCR of NFKB target genes. It is filed as cell-based.
Test [4] has as its system DLBCL cell lines (SU-DHL-6, SU-DHL-2). Briefly: gene expression profiling (Illumina HumanHT-12 Expression BeadChips). Format: cell-based. As to the method: Baseline gene expression profiles (GEP) were obtained in 38 lymphoma cell lines, including 22 DLBCL with Illumina HumanHT-12 v4 Expression BeadChip. GEP before and after OTX015 treatment were done in […] DLBCL cell lines, too. The relationship between GEP and IC50 values was assessed by Pearson correlation. LIMMA was used for differential expression analysis, followed by Benjamini-Hochberg multiple test correction, and GSEA to test for enrichment of functionally-related genes.
Cell lines: 22 diffuse large B-cell lymphoma (DLBCL), 4 mantle cell lymphomas, 3 multiple myelomas, 3 splenic marginal zone lymphoma and 1 prolymphocytic leukemia. Anti-proliferative of OTX015 (OncoEthix SA, Switzerland) was assessed by MTT and its cytotoxic activity by Annexin V staining and gene expression profiling (GEP) with Illumina HumanHT-12 Expression BeadChips. Data mining was done with LIMMA, GSEA, Metacore.
We performed GEP on 2 cell lines (SU-DHL-6, SU-DHL-2), treated with DMSO or OTX015 (500 nM) for 1, 2, 4, 8 or 12 hours.

Test [5] has as its target mTORC1 (Homo sapiens, UniProt P42345). To be noted: cited from earlier work.
Test [6] has as its system pAktS473, pGSK3βS9, pS6, pMAPK, pAktT308. To be noted: cited from earlier work.
Test [7] addresses mTORC2 (Homo sapiens, UniProt P42345). To be noted: cited from earlier work.
Test [8] has as its target Bruton's tyrosine kinase (BTK) (Homo sapiens, UniProt Q06187). As to conditions: in intact cells and in cell-free systems; cited from earlier work.
For test [9], the system named is PKC. As to conditions: cited from earlier work.
Test [10] has as its system Lyn, Syk, PKA, casein kinase I, ERK1, ERK2 and p38 kinase. As to conditions: cited from earlier work.
The target of test [11] is BTK and PKCβII (Homo sapiens, UniProt Q06187). As to conditions: in intact cells and in cell-free systems; cited from earlier work.
The mark [12] stands for this setting: SU-DHL-6, SU-DHL-2, 500 nM for 1, 2, 4, 8 or 12 hours.

Sequence of BTK and PKCβII (Q06187 whole entry, species assumed): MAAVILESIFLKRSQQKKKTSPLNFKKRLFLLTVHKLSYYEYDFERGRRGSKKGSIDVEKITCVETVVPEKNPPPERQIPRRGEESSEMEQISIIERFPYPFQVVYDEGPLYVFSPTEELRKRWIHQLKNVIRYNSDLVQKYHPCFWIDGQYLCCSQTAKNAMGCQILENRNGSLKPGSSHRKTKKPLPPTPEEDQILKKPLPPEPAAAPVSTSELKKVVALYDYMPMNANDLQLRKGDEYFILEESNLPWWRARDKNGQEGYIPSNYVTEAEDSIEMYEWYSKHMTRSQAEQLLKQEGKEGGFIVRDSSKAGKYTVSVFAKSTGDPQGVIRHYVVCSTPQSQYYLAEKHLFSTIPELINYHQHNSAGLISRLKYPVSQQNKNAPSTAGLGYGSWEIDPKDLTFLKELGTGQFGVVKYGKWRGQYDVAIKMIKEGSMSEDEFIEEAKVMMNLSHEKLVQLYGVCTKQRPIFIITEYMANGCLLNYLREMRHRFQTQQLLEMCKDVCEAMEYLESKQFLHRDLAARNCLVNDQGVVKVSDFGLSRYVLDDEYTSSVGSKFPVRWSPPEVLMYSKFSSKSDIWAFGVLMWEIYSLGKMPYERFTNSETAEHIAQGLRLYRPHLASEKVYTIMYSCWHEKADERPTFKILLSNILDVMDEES
Sequence of Bruton's tyrosine kinase (BTK) (Q06187 whole entry, species assumed): as above

`Cc1sc2c(c1C)C(c1ccc(Cl)cc1)=N[C@@H](CC(=O)Nc1ccc(O)cc1)c1nnc(C)n1-2` [Compound (1-1), 2-[(6S)-4-(4-chlorophenyl)-2,3,9-trimethyl-6H-thienol[3,2-f]-[1,2,4]triazolo[4,3-a][1,4]diazepin-6-yl]-N-(4-hydroxyphenyl)acetamide dihydrate]: in test [1], the “nuclear localization of p50 (NFKB 1)” value was “reduction in nuclear localization of p50 (NFKB 1)”. In addition, the “transcriptionally active pSTAT3” value in test [1] (2 ABC cell lines) was “reduction of transcriptionally active pSTAT3”. Moreover, the “IL10 and IL4 production” value in test [2] is “IL10 and IL4 production was reduced”. Further, in [3], the “NFKB target gene expression (PCR)” value was “NFKB target genes (IRF4, TNFAIP3 and BIRC3) were also downregulated”. For the same molecule, in test [4] (Example 7), the “MYD88/JAK/STAT pathway expression (additional GEP)” value is listed as “down-regulation of the MYD88/JAK/STAT pathway”. Moreover, in test [4] (setting [12]), the “genes downregulated (GEP), members of the NFKB, TLR and JAK/STAT pathways” value was “downregulated MYD88, IRAK1, TLR6, IL6, STAT3, and TNFRSF17”; the “most frequently downregulated gene (GEP)” value is recorded as “MYC was the most frequently downregulated gene”; the “most upregulated genes (GEP)” value is “Most upregulated genes were histones”.
Broadly, the IC50 is the concentration that gives 50% inhibition. For `COc1cccc2cc(-c3nc([C@H]4CC[C@H](C(=O)O)CC4)n4ncnc(N)c34)[nH]c12` [OSI-027], the IC50 in test [5] is 22 nM.
Turning to `COc1ccc(COc2cc3oc(=O)c4cc(C(C)O)ccc4c3cc2OC)cc1` (stereo not shown) [Palomid 529], in [6], the “effect on phosphorylation markers” value was “reduces phosphorylation of pAktS473, pGSK3βS9, and pS6 but neither pMAPK nor pAktT308”. For the same molecule, the “mTORC1 complex inhibition” value in test [5] was “inhibits both the mTORC1 and mTORC2 complexes”. The “mTORC2 complex inhibition” value in test [7] is “inhibits both the mTORC1 and mTORC2 complexes”.
For the molecule `CC1=C(O)C(=O)[C@@H]2O[C@@H]2C1=O` [Terreic acid, (1R,6S)-3-Hydroxy-4-methyl-7-oxabicyclo[4.1.0]hept-3-ene-2,5-dione], the “catalytic activity of BTK” value in test [8] is reported as “Inhibits the catalytic activity of BTK”. Also, in [9], the “activity of PKC” value was “without affecting the activity of PKC”. In [10], the “effect on activities of Lyn, Syk, PKA, casein kinase I, ERK1, ERK2 and p38 kinase” value is listed as “little or no effect”. Also, in test [11], the “interaction between BTK and PKCβII” value is “Inhibits the catalytic activity of BTK as well as the interaction between BTK and PKCβII”.
